Numbers after ± are expanded uncertainties.
Test: refractive index (Na D-line) (dimensionless)
Details: 101.33 kPa, Liquid, Standard Abbe refractometry

With `CC(=O)OC(C)C` [1-methylethyl ethanoate] the refractive index (293.15 K) was 1.3779 ± 0.002.
For `O=Cc1ccco1` [2-furaldehyde], the refractive index (293.15 K) was 1.5264 ± 0.002.
Compound `COc1ccccc1O` [2-methoxyphenol] has a refractive index (293.15 K) of 1.5441 ± 0.002.
Work on `CC(=O)CO` [acetol] yielded a refractive index (293.15 K) of 1.4262 ± 0.0023.
Work on `CO` [methanol] yielded a refractive index (293.15 K) of 1.3293 ± 0.002.
For `Oc1ccccc1` [phenol], the refractive index (314.15 K) was 1.5405 ± 0.002.
`CCC=O` [propanal] gave a refractive index (293.15 K) of 1.3644 ± 0.002.
Work on `Cc1ccccc1` [toluene] yielded a refractive index (293.15 K) of 1.4969 ± 0.002.

From the NIST ThermoML archive (doi:10.1016/j.fluid.2018.04.016)
